Test results taken from ChEMBL document CHEMBL1201862, “PubChem BioAssay data set” (2004).
Each block holds one compound with its values, some of them ahead of it. Calls of active or inactive are those of the source.

Tests used:
[1] = molecular target: Genome polyprotein (dengue virus type 2, UniProt P29990); test: Dengue-2 NS5 methyltransferase inhibitors, primary screen, biochemical, confirmation dose response (AID 588689); assay type: functional
[2] = molecular target: Estrogen receptor beta (Homo sapiens, UniProt Q92731); test: ERβ–SRC-3 coactivator interaction inhibitors, confirmation, orthogonal assay, biochemical, ELISA, streptavidin-HRP readout (AID 1060)
[3] = NIH-3T3 fibroblast cytotoxicity, dose response, cytotoxicity control, cell-based, fluorescence, Alamar Blue, secondary assay (AID 2327); assay type: functional;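 further: NIH-3T3 mouse fibroblasts cultured with fluconazole at 8 µg/mL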
[4] = C. albicans growth with fluconazole, confirmation, fluorescence, retest (AID 2467); assay type: functional, cell-based
[5] = molecular target: T1, Mannose-6-phosphate isomerase (Homo sapiens, UniProt P34949); test: human PMI inhibitors, high substrate, primary screen, biochemical, fluorescence intensity, high mannose 6-phosphate (AID 1220)
T1 sequence (P34949 whole entry): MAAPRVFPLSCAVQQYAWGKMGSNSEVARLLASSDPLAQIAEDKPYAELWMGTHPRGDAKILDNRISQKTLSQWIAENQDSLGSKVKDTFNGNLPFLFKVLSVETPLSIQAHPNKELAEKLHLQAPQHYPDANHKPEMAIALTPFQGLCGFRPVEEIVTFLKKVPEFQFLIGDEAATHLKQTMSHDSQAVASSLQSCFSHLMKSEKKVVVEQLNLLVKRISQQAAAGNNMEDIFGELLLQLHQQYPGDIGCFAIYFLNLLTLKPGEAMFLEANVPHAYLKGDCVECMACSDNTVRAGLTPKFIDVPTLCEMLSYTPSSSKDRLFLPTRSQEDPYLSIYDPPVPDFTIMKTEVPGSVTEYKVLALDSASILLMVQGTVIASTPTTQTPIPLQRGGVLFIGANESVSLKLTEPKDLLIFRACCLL

[6] = molecular target: T2, Bcl-2-like protein 10 (Homo sapiens, UniProt Q9HD36); test: displacers of TR3 peptide from Bcl-B, primary screen, selectivity assay for Bfl-1 inhibitor project, biochemical, fluorescence polarization, FITC-TR3 peptide (AID 748);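 further: fluorescence polarization from a fluorescein-labelled TR3 peptide binding purified Bcl-B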
T2 sequence (Q9HD36 whole entry): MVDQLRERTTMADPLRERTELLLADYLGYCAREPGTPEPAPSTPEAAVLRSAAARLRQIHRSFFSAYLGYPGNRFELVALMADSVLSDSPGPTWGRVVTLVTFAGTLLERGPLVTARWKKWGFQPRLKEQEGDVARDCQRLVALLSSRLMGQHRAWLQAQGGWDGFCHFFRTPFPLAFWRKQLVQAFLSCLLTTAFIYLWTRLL

[7] = molecular target: Alkaline phosphatase, placental type (Homo sapiens, UniProt P05187); test: PLAP enzyme inhibitors, confirmation, biochemical, luminescence (AID 1512); assay type: functional
[8] = molecular target: G-protein coupled receptor 55 (Homo sapiens, UniProt Q9Y2T6); test: GPR55 antagonists blocking LPI-driven arrestin recruitment, primary screen, imaging, U2OS, beta-arrestin-GFP, LPI agonist (AID 2013); assay type: functional;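 further: antagonist potency measured as reduced agonist-driven arrestin aggregation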
[9] = molecular target: DNA dC->dU-editing enzyme APOBEC-3A (Homo sapiens, UniProt P31941); test: Dose Response confirmation of small molecule APOBEC3A DNA Deaminase Inhibitors via a fluorescence-based single-stranded DNA deaminase assay. [Related pubchem assays (depositor defined):AID493011, AID493024]; assay type: functional
[10] = molecular target: DNA dC->dU-editing enzyme APOBEC-3G (Homo sapiens, UniProt Q9HC16); assay type: functional;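 further: Dose-response counterscreen measuring inhibition of APOBEC3G DNA deaminase activity, run while confirming APOBEC3A inhibitors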
[11] = molecular target: SUMO-activating enzyme (Homo sapiens, UniProt Q9UBT2); test: SUMOylation inhibitor hit validation, confirmation, SUMOylation inhibitor project, biochemical, AlphaScreen (AID 2018); assay type: functional
[12] = growth suppression of PTEN-null colon cells, dose response, cell-based, HCT116 PTEN knockout (AID 1047); assay type: functional;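 further: HCT116 colon tumor cells with PTEN knocked out; cells exposed to compound for 60 hours before readout; potency for loss of cell viability measured by luminescence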
[13] = molecular target: T3, Leucine aminopeptidase (Plasmodium falciparum 3D7, UniProt Q8IL11); test: P. falciparum M17LAP inhibitors, primary screen, biochemical, fluorogenic H-Leu-NHMec substrate, 1536-well (AID 1619); assay type: functional
T3 sequence (Q8IL11 whole entry): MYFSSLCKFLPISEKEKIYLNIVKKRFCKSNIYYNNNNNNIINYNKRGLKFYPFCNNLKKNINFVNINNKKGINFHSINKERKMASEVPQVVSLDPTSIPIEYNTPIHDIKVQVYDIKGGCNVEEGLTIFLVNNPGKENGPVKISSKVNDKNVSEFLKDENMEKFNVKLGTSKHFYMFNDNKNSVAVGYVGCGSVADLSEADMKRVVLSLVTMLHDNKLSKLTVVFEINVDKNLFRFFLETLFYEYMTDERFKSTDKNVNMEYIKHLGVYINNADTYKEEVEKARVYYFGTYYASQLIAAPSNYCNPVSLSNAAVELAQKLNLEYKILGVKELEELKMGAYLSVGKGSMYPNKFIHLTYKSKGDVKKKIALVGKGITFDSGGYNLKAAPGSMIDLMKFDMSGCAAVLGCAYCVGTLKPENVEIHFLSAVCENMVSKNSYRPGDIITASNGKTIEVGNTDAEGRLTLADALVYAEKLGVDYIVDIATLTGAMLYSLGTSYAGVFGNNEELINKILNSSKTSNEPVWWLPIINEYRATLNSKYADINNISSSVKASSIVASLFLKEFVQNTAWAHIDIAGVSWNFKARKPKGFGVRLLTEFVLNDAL

[14] = Luminescence Cell-Based Dose Retest to Confirm Inhibitors of Cancer Stem Cells. [Related pubchem assays (depositor defined):AID2717, AID2721]; assay type: functional; settings: Homo sapiens
[15] = molecular target: T4, Runt-related transcription factor 1/Core-binding factor subunit beta (Homo sapiens, UniProt Q01196+Q13951); test: inhibitors of RUNX1 Runt–CBFb-SMMHC binding, primary screen, biochemical, FRET, Cerulean-Runt, Venus-CBFb-SMMHC, uHTS (AID 1434); assay type: protein assay;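 further: partner is the CBFb-SMMHC leukemia fusion protein rather than wild-type CBFb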
[16] = molecular target: T4, Runt-related transcription factor 1/Core-binding factor subunit beta; test: inhibitors of RUNX1 Runt–CBFb-SMMHC binding, biochemical, TR-FRET (AID 1438); assay type: protein assay
[17] = molecular target: Troponin, cardiac muscle (Homo sapiens, UniProt P19429+P45379+P63316); test: Fluorescence-based biochemical high throughput dose response assay for activators of the calcium sensitivity of cardiac Regulated Thin Filaments (RTF). [Related pubchem assays (depositor defined):AID493008, AID493018, AID504382, AID504383]; assay type: protein-complex assay
[18] = molecular target: T5, Sphingosine 1-phosphate receptor 4 (Homo sapiens, UniProt O95977); test: Late-stage fluorescence dose response cell-based assay to identify agonists of the Sphingosine 1-Phosphate Receptor 4 (S1P4): purchased compounds EC50. [Related pubchem assays (depositor defined):AID1509, AID1523, AID1563, AID1686, AID1701, AID1801]; assay type: functional
T5 sequence (O95977 whole entry): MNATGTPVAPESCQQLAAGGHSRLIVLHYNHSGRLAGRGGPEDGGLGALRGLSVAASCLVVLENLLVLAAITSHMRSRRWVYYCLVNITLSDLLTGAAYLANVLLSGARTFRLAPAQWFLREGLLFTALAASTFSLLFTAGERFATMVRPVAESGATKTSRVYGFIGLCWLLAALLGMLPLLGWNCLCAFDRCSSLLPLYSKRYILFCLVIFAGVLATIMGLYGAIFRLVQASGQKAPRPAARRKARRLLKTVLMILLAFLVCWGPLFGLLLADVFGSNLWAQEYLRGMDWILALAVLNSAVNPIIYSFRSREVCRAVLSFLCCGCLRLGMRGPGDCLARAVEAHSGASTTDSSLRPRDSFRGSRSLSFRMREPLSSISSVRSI

[19] = molecular target: T6, Short transient receptor potential channel 4 (Mus musculus, UniProt Q9QUQ5); test: mouse TRPC4 channel inhibitors, dose response, cell-based, HEK293 TRPC4/mu-opioid, Fluo-4 calcium (AID 434942); assay type: functional;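 further: potency of inhibitors blocking the TRPC4 calcium response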
T6 sequence (Q9QUQ5 whole entry): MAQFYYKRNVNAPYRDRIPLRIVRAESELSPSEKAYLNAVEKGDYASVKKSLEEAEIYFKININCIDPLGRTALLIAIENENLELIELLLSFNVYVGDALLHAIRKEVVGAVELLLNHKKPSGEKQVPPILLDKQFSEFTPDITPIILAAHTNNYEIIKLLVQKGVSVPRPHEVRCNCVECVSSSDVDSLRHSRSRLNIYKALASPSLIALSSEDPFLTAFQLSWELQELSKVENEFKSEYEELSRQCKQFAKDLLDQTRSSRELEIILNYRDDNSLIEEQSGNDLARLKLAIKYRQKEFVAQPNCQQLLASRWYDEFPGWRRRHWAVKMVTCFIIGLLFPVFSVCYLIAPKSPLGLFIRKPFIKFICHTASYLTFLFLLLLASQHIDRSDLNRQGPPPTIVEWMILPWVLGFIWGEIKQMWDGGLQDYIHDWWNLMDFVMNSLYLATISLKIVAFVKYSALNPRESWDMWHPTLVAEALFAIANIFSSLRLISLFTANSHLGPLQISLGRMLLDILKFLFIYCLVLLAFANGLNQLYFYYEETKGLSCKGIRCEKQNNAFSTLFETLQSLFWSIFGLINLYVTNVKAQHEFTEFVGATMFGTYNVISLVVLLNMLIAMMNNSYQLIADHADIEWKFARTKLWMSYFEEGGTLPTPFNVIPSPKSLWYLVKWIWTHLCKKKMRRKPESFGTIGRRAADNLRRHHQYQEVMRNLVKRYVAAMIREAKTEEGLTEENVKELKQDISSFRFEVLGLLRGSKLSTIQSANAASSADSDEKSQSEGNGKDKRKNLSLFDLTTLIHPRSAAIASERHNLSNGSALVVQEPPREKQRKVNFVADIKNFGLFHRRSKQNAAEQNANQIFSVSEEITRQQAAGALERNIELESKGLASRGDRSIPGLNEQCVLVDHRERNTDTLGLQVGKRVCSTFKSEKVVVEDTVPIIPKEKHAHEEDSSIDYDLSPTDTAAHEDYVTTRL

[20] = molecular target: T7, Voltage-gated N-type calcium channel alpha-1B subunit/Amyloid beta A4 precursor protein-binding family A member 1 (Homo sapiens, UniProt Q00975+Q02410); test: disruptors of Mint-PDZ/N-type channel peptide interaction – biochemical, HTRF, set 2, SAR follow-up (AID 434980); assay type: functional
[21] = molecular target: SUMO E1/E2 (Homo sapiens, UniProt P63279+Q9UBE0+Q9UBT2); test: SAR analysis of SUMOylation using HTRF in an in-Vitro dose response assay. [Related pubchem assays (depositor defined):AID2006, AID2011, AID2018, AID2069, AID2658]; assay type: functional
[22] = molecular target: T7, Voltage-gated N-type calcium channel alpha-1B subunit/Amyloid beta A4 precursor protein-binding family A member 1; test: disruptors of Mint-PDZ/N-type channel peptide interaction – biochemical, HTRF, SAR follow-up (AID 2489); assay type: functional
[23] = molecular target: CAAX prenyl protease 1 (Saccharomyces cerevisiae S288c, UniProt P47154); test: Ste24 protease inhibitors, dose response, biochemical, S. cerevisiae, plate reader, cherry-pick (AID 488815)

Compound: O=C(Cc1cnn(-c2ccccc2)c1)c1ccc(O)c(O)c1O
- IC50 [1]: 75.7 µM (active)
- IC50 [2]: 34.5 µM (not active)
- EC50 [3]: > 150 µM (inactive)
- EC50 [4]: > 38 µM (not active)
- IC50 [5]: 4.69 µM (active)
- IC50 [6]: 39.5 µM (active)
- IC50 [7]: > 100 µM (inactive)

Compound: COC(=O)C1=C(C)N(Cc2ccccc2)C(NCCc2cccnc2)=N[C@H]1c1ccccc1
- IC50 [8]: 1.08 µM (active)
- IC50 [9]: 2.69 µM (active)
- IC50 [10]: 4.62 µM (active)

Compound: Cc1cc(NC(=O)Cn2c(=O)n(Cc3ccccc3)c(=O)c3ccccc32)no1
- IC50 [11]: 67.7 µM (active)
- EC50 [12]: 35.9 µM (active)

Compound: O=C(Nc1cc(N2CCOCC2)ncn1)NC1(C(F)(F)F)Oc2ccc(Cl)cc2O1 (stereo not given)
- IC50 [5]: 18.1 µM (active)
- IC50 [13]: 32.4 µM (active)
- AC50 [14]: 7.43 µM (active)
- IC50 [7]: 10.4 µM (active)

Compound: CCC1(C)Cc2c(sc3[nH]c(=O)[nH]c(=O)c23)CS1 (stereo not given)
- IC50 [1]: 88.7 µM (active)
- IC50 [15]: 38.5 µM (active)
- IC50 [16]: 45.1 µM (active)

- EC50 [17]: 12.9 µM (inactive)
Compound: COc1ccc(/C=C2\SC(=S)N(CCCC(=O)Nc3ccccc3C(=O)O)C2=O)cc1OC

Compound: Cc1ccc(CNC(=O)C(C)OC(=O)c2c(C)nn(Cc3ccc(C)cc3)c2Cl)cc1 (stereo not given)
- EC50 [18]: > 50 µM (inactive)

- EC50 [18]: > 50 µM (inactive)
Compound: CCNC(=O)NC(=O)C(C)OC(=O)c1cc2c(C)nn(Cc3ccccc3)c2s1 (stereo not given)

- EC50 [19]: 2.99 µM (active)
Compound: COc1cc2ccccc2c2c1CCCC2=O

- EC50 [17]: > 7.94 µM (active)
Compound: CC1=CC(=C(C#N)c2nc3ccccc3s2)C=C(C)N1c1ccc(F)cc1

- IC50 [20]: 3.41 µM (active)
- IC50 [21]: 2.06 µM (active)
- IC50 [22]: 15.4 µM (active)
Compound: COc1ccccc1C(=O)NC(=O)COC(=O)c1cc(-c2ccco2)nc2ccccc12

Compound: Cc1ccc(-n2c(C)cc(/C=N/NC(=O)Cn3c4ccccc4c(=O)c4ccccc43)c2C)cc1
- IC50 [15]: 2.37 µM (active)
- IC50 [16]: 13 µM (active)

- AC50 [23]: 3.7 µM (active)
Compound: CCOC(=O)c1sc2nc(C3CC3)cc(-c3ccc(F)cc3)c2c1N
